Experimental data taken from patent publication US20220023773A1, “COMPOSITIONS COMPRISING 2-[(1R,6R)-6-ISOPROPENYL-3-METHYLCYCLOHEX-2-EN-1-YL]-3-HYDROXY-5-PENTYLPHENOLATE” (Natural Extraction Systems, LLC, priority 2018, published 2022).

How the values were obtained:
Type in all cases: physicochemical
[1] = pH stability of the phenolate in water (color change purple to yellow-brown)
Description: 1 gram of 1R,6R CBD was dissolved in 6.6 milliliters of 0.5 molar potassium hydroxide (0.5 M KOH) in ethanol to produce 2-[(1R,6R)-6-isopropenyl-3-methylcyclohex-2-en-1-yl]-3-hydroxy-5-pentylphenolate. The solution was then diluted with 100 millimolar sodium carbonate (100 mM Na2CO3) in water to a final volume of 50 milliliters and a 2-[(1R,6R)-6-isopropenyl-3-methylcyclohex-2-en-1-yl]-3-hydroxy-5- pentylphenolate concentration of approximately 20 grams per liter. 0.5 milliliters of the 2-[(1R,6R)-6-isopropenyl-3-methylcyclohex-2-en-1-yl]-3-hydroxy-5-pentylphenolate solution was added to each of 25 test tubes containing 9.5 milliliters of 0.1 molar carbonate/bicarbonate (CO3^2−/HCO3^−) buffer according to Table 1. Each test tube contained approximately 10 milligrams of 2-[(1R,6R)-6-isopropenyl-3-methylcyclohex-2-en-1-yl]-3-hydroxy-5-pentylphenolate at a concentration of approximately 1 gram per liter, approximately 0.66% ethanol by weight, trace potassium ion, and variable sodium ion, carbonate ion, and bicarbonate ion. pH's were confirmed by multiple different measurements. […]

[2] = Commercial viability of beverages comprising the phenolate (appearance in bottled water)
Description: 20 milliliters of water was removed from a 1 liter bottle of ESSENTIA® OVERACHIEVING H2O®. ESSENTIA® OVERACHIEVING H2O® contains purified water, sodium bicarbonate, dipotassium phosphate, magnesium sulfate, and calcium chloride, and its pH was determined to be about 9.5. The 20 milliliters of removed water was replaced with 20 milliliters of the 20 gram-per-liter solution of 2-[(1R,6R)-6-isopropenyl-3-methylcyclohex-2-en-1-yl]-3-hydroxy-5-pentylphenolate, which is described in Example 1, and the bottle was hermetically sealed using the screw cap top of the bottle to produce a hermetically-sealed container comprising approximately 400 milligrams of 2-[(1R,6R)-6-isopropenyl-3-methylcyclohex-2-en-1-yl]-3-hydroxy-5-pentylphenolate. The pH of the liquid was measured and determined to be about 10. […] 5 milliliters of water was removed from a 500 milliliter bottle of DASANI® purified water.
DANSANI® purified water contains purified water, magnesium sulfate, potassium chloride, and sodium chloride, and its pH was determined to be about 7.0. The 5 milliliters of removed water was replaced with 5 milliliters of the 20 gram-per-liter solution of 2-[(1R,6R)-6-isopropenyl-3-methylcyclohex-2-en-1-yl]-3-hydroxy-5-pentylphenolate, which is described in Example 1, and the bottle was hermetically sealed using the screw cap top of the bottle to produce a hermetically-sealed container comprising approximately 100 milligrams of 2-[(1R,6R)-6-isopropenyl-3-methylcyclohex-2-en-1-yl]-3-hydroxy-5-pentylphenolate. The pH of the liquid was measured and determined to be about 9.5.
0.5 milliliters of water was removed from a 500 milliliter bottle of DASANI® purified water. DANSANI® purified water contains purified water, magnesium sulfate, potassium chloride, and sodium chloride, and its pH was determined to be about 7.0. […] The pH of the liquid was measured and determined to be about 8.5.

[3] = Determining the approximate pKa of 1R,6R CBD by color at varying sodium bicarbonate concentration; details: distilled water with sodium bicarbonate, under the test conditions, from color change
Description: Example 2. Determining the approximate pKa of IR, 6R CBD 0.5 milliliters of the 20 gram-per-liter solution of 2-[(1R,6R)-6-isopropenyl-3-methylcyclohex-2-en-1-yl]-3-hydroxy-5-pentylphenolate described in Example 1 was diluted with 9.5 milliliters of distilled water comprising varying concentrations of sodium bicarbonate, and color was monitored as shown in Table 2. pH's were confirmed by multiple different measurements.

SMILES	color change from purple (phenolate) to yellow-brown (1R,6R CBD) ([1]; pH's of 9.1 and above, approximately 1 gram per liter in 0.1 molar carbonate/bicarbonate buffer, approximately 0.66% ethanol)	appearance of the liquid ([2]; approximately 10 milligrams in 500 milliliter bottle of DASANI purified water, pH about 8.5)	appearance of the liquid ([2]; approximately 100 milligrams in 500 milliliter bottle of DASANI purified water, pH about 9.5)	appearance of the liquid ([2]; approximately 400 milligrams in 1 liter bottle of ESSENTIA OVERACHIEVING H2O, pH about 10)	pKa ([1]; suggested from absence of color change, at least in dilute aqueous solutions (alternative: kinetic trapping))	pKa [3]
C=C(C)[C@@H]1CCC(C)=C[C@H]1c1c(O)cc(CCCCC)cc1O [2-[(1R,6R)-6-isopropenyl-3-methylcyclohex-2-en-1-yl]-3-hydroxy-5-pentylphenolate]	No color change	transparent and lacked discernable color	transparent and purple	purple and transparent	–	–
C=C(C)[C@@H]1CCC(C)=C[C@H]1c1c(O)cc(CCCCC)cc1O [1R,6R CBD, 2-[(1R,6R)-6-isopropenyl-3-methylcyclohex-2-en-1-yl]-5-pentylbenzene-1,3-diol, reference compound]	–	–	–	–	< 9.1	8 to 8.5
